Laboratory results reported in patent publication US20250243180A1, “TARGETED PROTEIN DEGRADATION” (Monte Rosa Therapeutics AG, priority 2023, published 2025).
Like-named read-outs stand apart in the source and are kept apart here.

Key:
CRBN-DDB1 = CRBN-DDB1 (Homo sapiens (Human), UniProt Q96SW2); assay: Compound binding to CRBN by HTRF assay
Protocol: Compound activity was monitored in a Homogenous Time-Resolved Fluorescence (HTRF) assay using 1-[5-({2-[2-(2-{[2-(2,6-dioxopiperidin-3-yl)-1,3-dioxo-2,3-dihydro-1H-isoindol-4-yl]oxy}acetamido)ethoxy]ethyl}carbamoyl)pentyl]-3,3-dimethyl-2-[(1E,3E)-5-[(2E)-1,3,3-trimethyl-5-sulfo-2,3-dihydro-1H-indol-2-ylidene]penta-1,3-dien-1-yl]-3H-indol-1-ium-5-sulfonate as a fluorescent probe. Biochemical assays were conducted in Greiner white 384 well HiBase plates (Cat. No 784075-25) in 20 μL total volume. A one pot detection solution of CRBN-DDB1 (2.5 nM), Anti-His Terbium Cryptate Gold (1×, PerkinElmer Cat. #: 61HI2TLB), and Cy5-Thalidomide (100 nM, Tenova Cat.: T52461) was prepared in 20 mM HEPES, 20 mM NaCl, 0.2 mM TCEP, 0.2 mM EDTA, and 0.005% Tween20 was dispensed to each assay plate. Compounds were stored in dry, ambient temperatures at 10 mM. An 11-point, 1:3 dilution series was prepared from 10 mM stock concentrations in Echo-compatible LDV plates. 10 nL of each compound dilution series was dispensed into assays wells using an Echo 650 (Labcyte Inc. USA). 20 nL of 10 mM Lenalidomide was transferred into the active-control wells for the assay and 20 nL of DMSO was transferred into the neutral-control wells. The assay was then allowed to incubate for 30 min at ambient temperature after transferring compound. Plate measurements were taken on a Pherastar FSX (BMG Labtech, Germany) using the HTRF Red filter (Ex. 337 nm, em1: 620 nm, em2: 665 nm) (Flashes: 50, Integration time: 60-400 us, Z-height: 10 mm, Ratio-multiplier: 10,000). The HTRF signal was then subsequently normalized to the neutral and active controls. Analysis and EC50 values were derived using KNIME analytics (KNIME Zurich) transformation and fitting within Collaborative Drug Discovery (Collaborative Drug Discovery USA). Ki was derived from the geometric mean of the EC50 values using the Cheng-Prustoff transformation.

NEK7 = NEK7 (Homo sapiens (Human), UniProt Q8TDX7+Q96SW2); assay: NEK7 NanoBiT degradation assay in Cal51 NEK7 NanoBiT cell line; assay type: cell-based; details: Cal51 NEK7 NanoBiT cells, 24 hours; for Dmax: CAL-51
Protocol: Cal51 NEK7 NanoBiT cell line was generated via CRISPR Knock-In of the HiBiT tag in NEK7 gene and stable infection with a lentivirus carrying LgBiT protein. The cell line was generated in house. For the experiment, cells were plated in 384-well white flat bottom plates (Corning, 3570BC) at 2500 cells per well using Multiflo (BioTek/Agilent) and in 25 μl volume in DMEM experimental medium: DMEM (DMEM, high glucose, HEPES, no phenol red (ThermoFisher Scientific, 21063029) supplemented with 10% FBS (Corning, 35-075-CV), 1% Penicillin/Streptomycin ((ThermoFisher Scientific, 15140-122), and 1% Endurazine (Nano-Glo Endurazine Live Cell Substrate (Promega, N2571)). Cells were incubated for 16 hours at 37° C., 5% CO2 before compound addition. For dose response determination, 2.5 nL of a compound at different concentrations (stock compound concentration range: 10 mM to 0.5 μM, final concentration range inside cell plate: 1 μM to 0.05 nM) were dispensed into the plate using an Echo® 650 liquid handling device (Backman Coulter/Labcyte). Cells were incubated at 37° C., 5% CO2 for 24 hours and then signal was read on a Pherastar FSX using “LUM plus” optic module with 4095 gain and measurement interval time 0.2 seconds.
Analysis was performed in Genedata Screener (Genedata, Basel, CH). Luminescence response (R) was calculated by the formula: response=100*(S−N)/(P−N) where S is the signal of the well, N and P the mean negative and positive control values respectively of the same plate. The luminescence response was then fitted in Genedata using a 4-parameter antagonist logistic fit (hill slope unconstrained, EC50>0, top/bottom unconstrained).

[1] = NEK7 degradation, read-out: NanoBiT Dmax
[2] = NEK7 degradation, read-out: NanoBiT DC50

CRBN-DDB1, sequence (Q96SW2 whole entry): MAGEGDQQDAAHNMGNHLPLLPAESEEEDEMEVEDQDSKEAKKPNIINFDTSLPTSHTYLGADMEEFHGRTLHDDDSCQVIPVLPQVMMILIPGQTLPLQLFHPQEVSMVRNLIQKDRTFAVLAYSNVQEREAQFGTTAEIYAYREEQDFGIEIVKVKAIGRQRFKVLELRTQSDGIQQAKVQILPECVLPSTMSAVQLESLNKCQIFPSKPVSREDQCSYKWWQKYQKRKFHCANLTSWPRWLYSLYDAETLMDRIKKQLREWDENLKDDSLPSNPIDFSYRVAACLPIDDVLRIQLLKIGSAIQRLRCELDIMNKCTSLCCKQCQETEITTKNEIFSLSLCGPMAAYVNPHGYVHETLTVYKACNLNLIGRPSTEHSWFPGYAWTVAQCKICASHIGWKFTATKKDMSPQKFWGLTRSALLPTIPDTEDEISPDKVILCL
CRBN-DDB1, sequence (Q16531 whole entry partner): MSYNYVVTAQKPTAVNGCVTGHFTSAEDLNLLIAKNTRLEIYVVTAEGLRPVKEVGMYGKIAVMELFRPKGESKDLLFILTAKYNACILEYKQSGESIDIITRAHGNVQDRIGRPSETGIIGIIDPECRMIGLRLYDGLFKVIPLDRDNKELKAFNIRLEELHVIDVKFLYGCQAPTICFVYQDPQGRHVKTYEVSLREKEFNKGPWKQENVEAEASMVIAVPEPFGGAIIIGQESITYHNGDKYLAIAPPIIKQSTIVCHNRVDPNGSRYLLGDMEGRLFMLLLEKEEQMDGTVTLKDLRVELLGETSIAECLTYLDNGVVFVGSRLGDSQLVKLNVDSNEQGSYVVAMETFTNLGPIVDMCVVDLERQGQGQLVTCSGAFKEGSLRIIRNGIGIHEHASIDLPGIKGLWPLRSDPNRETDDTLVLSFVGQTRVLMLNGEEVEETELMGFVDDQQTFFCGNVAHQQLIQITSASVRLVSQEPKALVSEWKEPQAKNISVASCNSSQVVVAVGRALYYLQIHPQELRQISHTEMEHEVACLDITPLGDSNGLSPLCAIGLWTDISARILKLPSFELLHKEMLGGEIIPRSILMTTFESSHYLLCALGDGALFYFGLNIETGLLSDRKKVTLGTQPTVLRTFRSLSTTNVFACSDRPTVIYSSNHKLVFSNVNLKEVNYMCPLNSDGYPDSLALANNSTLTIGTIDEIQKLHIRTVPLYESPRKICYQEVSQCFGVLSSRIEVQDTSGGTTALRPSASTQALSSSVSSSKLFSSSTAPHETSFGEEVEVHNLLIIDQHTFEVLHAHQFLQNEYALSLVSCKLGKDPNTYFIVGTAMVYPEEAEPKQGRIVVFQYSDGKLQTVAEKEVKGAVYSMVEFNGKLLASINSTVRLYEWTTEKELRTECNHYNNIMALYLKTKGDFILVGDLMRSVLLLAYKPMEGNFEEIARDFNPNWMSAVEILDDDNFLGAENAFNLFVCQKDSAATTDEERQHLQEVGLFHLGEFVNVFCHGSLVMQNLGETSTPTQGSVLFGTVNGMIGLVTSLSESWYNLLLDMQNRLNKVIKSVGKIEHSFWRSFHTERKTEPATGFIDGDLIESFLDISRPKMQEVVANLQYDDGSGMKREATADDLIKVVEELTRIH
NEK7, sequence (Q8TDX7 whole entry): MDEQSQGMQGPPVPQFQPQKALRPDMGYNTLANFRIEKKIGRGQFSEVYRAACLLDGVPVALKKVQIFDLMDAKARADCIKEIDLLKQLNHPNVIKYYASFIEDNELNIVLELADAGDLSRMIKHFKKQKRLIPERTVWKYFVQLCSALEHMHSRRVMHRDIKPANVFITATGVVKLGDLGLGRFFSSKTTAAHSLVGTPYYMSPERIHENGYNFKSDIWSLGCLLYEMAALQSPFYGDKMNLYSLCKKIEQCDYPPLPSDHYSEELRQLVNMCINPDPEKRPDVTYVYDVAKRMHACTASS
NEK7, sequence (Q96SW2 whole entry): as the sequence (Q96SW2 whole entry) above
NEK7, sequence (Q16531 2-1140 partner): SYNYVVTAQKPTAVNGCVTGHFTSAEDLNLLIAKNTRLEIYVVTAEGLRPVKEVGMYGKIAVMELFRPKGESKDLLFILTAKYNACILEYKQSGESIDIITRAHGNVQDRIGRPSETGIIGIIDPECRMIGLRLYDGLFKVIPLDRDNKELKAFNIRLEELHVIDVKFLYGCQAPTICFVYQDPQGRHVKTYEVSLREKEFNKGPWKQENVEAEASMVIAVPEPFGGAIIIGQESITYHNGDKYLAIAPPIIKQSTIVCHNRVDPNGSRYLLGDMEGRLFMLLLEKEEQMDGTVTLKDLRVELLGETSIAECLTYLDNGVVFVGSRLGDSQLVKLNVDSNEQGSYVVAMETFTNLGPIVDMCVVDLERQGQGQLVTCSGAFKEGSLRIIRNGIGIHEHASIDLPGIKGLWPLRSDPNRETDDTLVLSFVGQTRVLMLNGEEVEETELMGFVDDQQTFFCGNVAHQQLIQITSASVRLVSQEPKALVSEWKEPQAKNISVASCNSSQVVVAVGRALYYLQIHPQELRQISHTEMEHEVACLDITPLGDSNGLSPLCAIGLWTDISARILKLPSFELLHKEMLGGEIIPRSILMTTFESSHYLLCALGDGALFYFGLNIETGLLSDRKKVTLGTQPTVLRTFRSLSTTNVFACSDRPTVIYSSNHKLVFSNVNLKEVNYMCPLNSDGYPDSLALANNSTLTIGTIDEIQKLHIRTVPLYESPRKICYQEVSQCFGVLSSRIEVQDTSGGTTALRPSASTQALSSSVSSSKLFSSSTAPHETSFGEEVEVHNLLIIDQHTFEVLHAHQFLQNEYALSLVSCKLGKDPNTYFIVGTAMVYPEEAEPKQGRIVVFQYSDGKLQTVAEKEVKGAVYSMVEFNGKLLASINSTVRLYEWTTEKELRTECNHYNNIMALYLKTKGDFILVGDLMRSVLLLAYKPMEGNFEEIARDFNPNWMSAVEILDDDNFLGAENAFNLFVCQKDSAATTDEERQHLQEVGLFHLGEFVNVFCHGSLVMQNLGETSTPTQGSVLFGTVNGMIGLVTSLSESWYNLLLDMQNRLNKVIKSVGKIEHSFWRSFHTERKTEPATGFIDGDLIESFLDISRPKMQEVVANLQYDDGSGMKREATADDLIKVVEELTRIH

Structure (SMILES)	EC50 (CRBN-DDB1) [µM]	EC50 (CRBN-DDB1; HTRF class, Cereblon binding) [µM]	Dmax (NEK7; read-out: NEK7 NanoBiT Dmax) [%]	Dmax (NEK7; [1]) [%]	DC50 (NEK7; read-out: NEK7 NanoBiT DC50) [µM]	DC50 (NEK7; [2]) [µM]
CC(C)(C(=O)NCc1ccc(C2CCC(=O)NC2=O)c(Cl)c1)c1cnc(F)nc1 (stereo not drawn) [Compound 3]	0.5	0.1 to 1	65	50 to 75	0.242	0.1 to 1
CC(C)(C(=O)NCc1cc(Cl)c(C2CCC(=O)NC2=O)c(Cl)c1)c1cnc(F)nc1 (stereo not drawn) [Compound 5, N-(3,5-dichloro-4-(2,6-dioxopiperidin-3-yl)benzyl)-2-(2-fluoropyrimidin-5-yl)-2-methylpropanamide]	0.12	0.1 to 1	63	50 to 75	0.133	0.1 to 1
CC(C)(C(=O)NCc1cc(Cl)c(C2CCC(=O)NC2=O)c(Cl)c1)c1ccc(C(F)F)nn1 (stereo not drawn) [Compound 6, N-(3,5-dichloro-4-(2,6-dioxopiperidin-3-yl)benzyl)-2-(6-(difluoromethyl)pyridazin-3-yl)-2-methylpropanamide]	0.21	0.1 to 1	91	> 75	0.007	≤ 0.1
Cn1ncc(C(C)(C)C(=O)NCc2cc(Cl)c(C3CCC(=O)NC3=O)c(Cl)c2)cc1=O (stereo not drawn) [Compound 9, N-(3,5-dichloro-4-(2,6-dioxopiperidin-3-yl)benzyl)-2-methyl-2-(1-methyl-6-oxo-1,6-dihydropyridazin-4-yl)propanamide]	0.21	0.1 to 1	85	> 75	0.022	≤ 0.1
CC(C)(C(=O)NCc1cc(Cl)c(C2CCC(=O)NC2=O)c(Cl)c1)c1ccc2ncoc2c1 (stereo not drawn) [Compound 10, 2-(benzo[d]oxazol-6-yl)-N-(3,5-dichloro-4-(2,6-dioxopiperidin-3-yl)benzyl)-2-methylpropanamide]	0.06	≤ 0.1	97	> 75	0.001	≤ 0.1
CC(C)(C(=O)NCc1ccc(C2CCC(=O)NC2=O)c(Cl)c1)c1cccc(C#N)c1 (stereo not drawn) [Compound 18]	0.54	0.1 to 1	61	50 to 75	0.206	0.1 to 1
CC(C)(C(=O)NCc1cc(Cl)c(C2CCC(=O)NC2=O)c(Cl)c1)c1ccncn1 (stereo not drawn) [Compound 19, N-(3,5-dichloro-4-(2,6-dioxopiperidin-3-yl)benzyl)-2-methyl-2-(pyrimidin-4-yl)propanamide]	0.14	0.1 to 1	84	> 75	0.023	≤ 0.1
CC(C)(C(=O)NCc1ccc(C2CCC(=O)NC2=O)c(Cl)c1)c1ccccc1F (stereo not drawn) [Compound 24]	0.32	0.1 to 1	74	50 to 75	0.076	≤ 0.1
CC(C)(C(=O)NCc1ccc(C2CCC(=O)NC2=O)c(Cl)c1)c1cccc(F)c1 (stereo not drawn) [Compound 25, N-(3-chloro-4-(2,6-dioxopiperidin-3-yl)benzyl)-2-(3-fluorophenyl)-2-methylpropanamide]	0.29	0.1 to 1	87	> 75	0.023	≤ 0.1

Continued by falling EC50 (CRBN-DDB1), values first:

EC50 (CRBN-DDB1) [µM]	EC50 (CRBN-DDB1; HTRF class, Cereblon binding) [µM]	Dmax (NEK7; read-out: NEK7 NanoBiT Dmax) [%]	Dmax (NEK7; [1]) [%]	DC50 (NEK7; read-out: NEK7 NanoBiT DC50) [µM]	DC50 (NEK7; [2]) [µM]	Structure (SMILES)
0.22	0.1 to 1	88	> 75	0.022	≤ 0.1	CC(C)(C(=O)NCc1cc(Cl)c(C2CCC(=O)NC2=O)c(Cl)c1)c1ccn(CC(F)(F)F)c(=O)c1 (stereo not drawn) [Compound 23]
0.21	0.1 to 1	93	> 75	0.006	≤ 0.1	CC(C)(C(=O)NCc1cc(Cl)c(C2CCC(=O)NC2=O)c(Cl)c1)c1ncncc1F (stereo not drawn) [Compound 8]
0.2	0.1 to 1	73	50 to 75	0.056	≤ 0.1	CC(C)(C(=O)NCc1cc(Cl)c(C2CCC(=O)NC2=O)c(Cl)c1)c1cnc(C#N)nc1 (stereo not drawn) [Compound 13]
0.19	0.1 to 1	90	> 75	0.009	≤ 0.1	CC(C)(C(=O)NCc1cc(Cl)c(C2CCC(=O)NC2=O)c(Cl)c1)c1ncc(F)cn1 (stereo not drawn) [Compound 11]
0.17	0.1 to 1	91	> 75	0.008	≤ 0.1	Cc1ccc(C(C)(C)C(=O)NCc2cc(Cl)c(C3CCC(=O)NC3=O)c(Cl)c2)nn1 (stereo not drawn) [Compound 12]
0.15	0.1 to 1	72	50 to 75	0.061	≤ 0.1	CC(C)(C(=O)NCc1cc(Cl)c(C2CCC(=O)NC2=O)c(Cl)c1)c1cccnn1 (stereo not drawn) [Compound 7, N-(3,5-dichloro-4-(2,6-dioxopiperidin-3-yl)benzyl)-2-methyl-2-(pyridazin-3-yl)propanamide]
0.12	0.1 to 1	94	> 75	0.003	≤ 0.1	CC(C)(C(=O)NCc1cc(Cl)c(C2CCC(=O)NC2=O)c(Cl)c1)c1ccc(C(F)F)cn1 (stereo not drawn) [Compound 4, N-(3,5-dichloro-4-(2,6-dioxopiperidin-3-yl)benzyl)-2-(5-(difluoromethyl)pyridin-2-yl)-2-methylpropanamide]
0.12	0.1 to 1	95	> 75	0.004	≤ 0.1	CC(C)(C(=O)NCc1cc(Cl)c(C2CCC(=O)NC2=O)c(Cl)c1)c1ccc(C#N)cn1 (stereo not drawn) [Compound 15, 2-(5-cyanopyridin-2-yl)-N-(3,5-dichloro-4-(2,6-dioxopiperidin-3-yl)benzyl)-2-methylpropanamide]
0.12	0.1 to 1	93	> 75	0.004	≤ 0.1	CC(C)(C(=O)NCc1cc(Cl)c(C2CCC(=O)NC2=O)c(Cl)c1)c1ccc(F)cn1 (stereo not drawn) [Compound 22]
0.11	0.1 to 1	94	> 75	0.003	≤ 0.1	CC(C)(C(=O)NCc1cc(Cl)c(C2CCC(=O)NC2=O)c(Cl)c1)c1cc2ncccc2cn1 (stereo not drawn) [Compound 2, N-(3,5-dichloro-4-(2,6-dioxopiperidin-3-yl)benzyl)-2-methyl-2-(1,6-naphthyridin-7-yl)propanamide]
0.09	≤ 0.1	94	> 75	0.003	≤ 0.1	CC(C)(C(=O)NCc1cc(Cl)c(C2CCC(=O)NC2=O)c(Cl)c1)c1cccc(C#N)c1 (stereo not drawn) [Compound 21, 2-(3-cyanophenyl)-N-(3,5-dichloro-4-(2,6-dioxopiperidin-3-yl)benzyl)-2-methylpropanamide]
0.07	≤ 0.1	86	> 75	0.013	≤ 0.1	CC(C)(C(=O)NCc1cc(Cl)c(C2CCC(=O)NC2=O)c(Cl)c1)c1ccccn1 (stereo not drawn) [Compound 20]
0.07	≤ 0.1	96	> 75	0.002	≤ 0.1	CC(C)(C(=O)NCc1cc(Cl)c(C2CCC(=O)NC2=O)c(Cl)c1)c1ccccc1F (stereo not drawn) [Compound 26]
